Experimental data reported in patent US10344025B2, “GLS1 inhibitors for treating disease” (Board of Regents, The University of Texas System, priority 2014, dated 2019).
Blank lines part the entries; values can stand above or below the compound they belong to.

Columns and labels:
A549 cells = experiment: Proliferation Assay (A549 viability, Cell Titer Fluor, 72 hours); type: cell-based; details: Homo sapiens, A549, 72 h
Protocol: A549 cells were routinely maintained in RPMI 1640 media (Gibco catalog number 11875-093) supplemented with 10% dialyzed fetal bovine serum using a humidified incubator (37° C., 5% CO2 and ambient O2). In preparation for the viability assay, cells were inoculated into 384-well black CulturPlates (Perkin Elmer) at a density of 1000 cells/well in a volume of 40 uL. Following a 24-hour incubation at 37° C., 5% CO2 and ambient O2, cells were treated with compound (10 uL) in a final DMSO concentration of 0.5% (v/v). The microplates were then incubated for 72 hours (37° C., 5% CO2 and ambient O2). Cell Titer Fluor (Promega) was subsequently added (10 uL of 6× reagent) and mixed for 15 minutes at room temperature. The plates were then incubated for 30 minutes (37° C., 5% CO2 and ambient O2) and fluorescence was subsequently read on the Perkin Elmer Envision plate reader. IC50 values were calculated using a four-parameter logistic curve fit.
Non-limiting examples include the following compounds and pharmaceutically acceptable salts thereof. […] “ND” indicates no data.

[1] = molecular target: purified recombinant human GAC (GLS1) (Homo sapiens (Human), UniProt O94925); experiment: GLS1 Enzymatic Activity Assay (dual-coupled enzymatic assay, resorufin/Amplex UltraRed readout); type: biochemical;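 further: glutamate from GAC coupled via glutamate oxidase and peroxidase to resorufin, read as fluorescence (ex 530, em 590 nm) kinetically or at 20 min, four-parameter logistic IC50 fit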
Sequence of purified recombinant human GAC (GLS1) (O94925 other isoform, or with tags, fused parts or gaps): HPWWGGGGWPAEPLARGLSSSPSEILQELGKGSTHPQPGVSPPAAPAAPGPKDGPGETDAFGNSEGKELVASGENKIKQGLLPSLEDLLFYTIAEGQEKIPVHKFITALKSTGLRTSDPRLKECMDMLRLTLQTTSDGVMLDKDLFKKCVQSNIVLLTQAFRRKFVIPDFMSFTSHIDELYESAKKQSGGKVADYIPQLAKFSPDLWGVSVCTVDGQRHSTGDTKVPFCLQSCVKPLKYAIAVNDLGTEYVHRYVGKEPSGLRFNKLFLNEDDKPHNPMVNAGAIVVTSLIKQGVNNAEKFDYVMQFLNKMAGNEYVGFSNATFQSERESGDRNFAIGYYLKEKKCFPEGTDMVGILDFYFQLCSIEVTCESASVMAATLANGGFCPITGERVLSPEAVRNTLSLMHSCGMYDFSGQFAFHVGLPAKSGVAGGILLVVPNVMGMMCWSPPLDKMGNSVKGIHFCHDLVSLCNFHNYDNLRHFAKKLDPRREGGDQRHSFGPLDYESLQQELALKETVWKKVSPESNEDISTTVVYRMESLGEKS

SMILES: O=C(Cc1cncc(OC2CC(F)(F)C2)c1)Nc1ccc(CCCCn2cc(C(=O)NCc3ccccn3)nn2)nn1 [Example 231, 1-(4-(6-(2-(5-(3,3-difluorocyclobutoxy)pyridin-3-yl)acetamido)pyridazin-3-yl)butyl)-N-(pyridin-2-ylmethyl)-1H-1,2,3-triazole-4-carboxamide]
EC50 (A549 cells): < 0.1 µM

SMILES: CNC(=O)c1cn(CCCCc2ccc(NC(=O)Cc3cncc(OC4CC(F)(F)C4)c3)nn2)nn1 [Example 202, 1-(4-(6-(2-(5-(3,3-difluorocyclobutoxy)pyridin-3-yl)acetamido)pyridazin-3-yl)butyl)-N-methyl-1H-1,2,3-triazole-4-carboxamide]
EC50 (A549 cells): 0.1 to 0.5 µM

SMILES: O=C(CC1CCCC1)Nc1cn(CCCCn2cc(C(=O)NCC3CCCCC3)nn2)nn1 [Example 282, N-(cyclohexylmethyl)-1-{4-[4-(2-cyclopentylacetamido)-1H-1,2,3-triazol-1-yl]butyl}-1H-1,2,3-triazole-4-carboxamide]
IC50 [1]: 0.5 to 5 µM

SMILES: O=C(CN1CCC(F)(F)CC1)Nc1cn(CCCCn2cc(C(=O)NCc3ncccc3F)nn2)nn1 [Example 361, 1-(4-{4-[2-(4,4-difluoropiperidin-1-yl)acetamido]-1H-1,2,3-triazol-1-yl}butyl)-N-[(3-fluoropyridin-2-yl)methyl]-1H-1,2,3-triazole-4-carboxamide]
IC50 [1]: 0.5 to 5 µM

SMILES: O=C(CC1CCCCC1)Nc1cn(CCCCn2cc(C(=O)NCC3CCCCC3)nn2)nn1 [Example 283, 1-{4-[4-(2-cyclohexylacetamido)-1H-1,2,3-triazol-1-yl]butyl}-N-(cyclohexylmethyl)-1H-1,2,3-triazole-4-carboxamide]
IC50 [1]: 0.5 to 5 µM

SMILES: Cc1ccc(CNC(=O)c2cn(CCCCc3nnc(C(=O)NCC4CN(C(=O)OC(C)(C)C)C4)s3)nn2)cn1 [Example 74, tert-butyl 3-[({5-[4-(4-{[(6-methylpyridin-3-yl)methyl]carbamoyl}-1H-1,2,3-triazol-1-yl)butyl]-1,3,4-thiadiazol-2-yl}formamido)methyl] azetidine-1-carboxylate]
IC50 [1]: 0.1 to 0.5 µM

SMILES: Cc1ccc(CNC(=O)c2cn(CCCCn3cc(NC(=O)CN4CCC(F)(F)CC4)nn3)nn2)cn1 [Example 358, 1-(4-{4-[2-(4,4-difluoropiperidin-1-yl)acetamido]-1H-1,2,3-triazol-1-yl}butyl)-N-[(6-methylpyridin-3-yl)methyl]-1H-1,2,3-triazole-4-carboxamide]
IC50 [1]: 0.5 to 5 µM

SMILES: O=C(CC1CC1)Nc1cn(CCCCn2cc(C(=O)NCc3cccnc3)nn2)nn1 [Example 308, 1-{4-[4-(2-cyclopropylacetamido)-1H-1,2,3-triazol-1-yl]butyl}-N-(pyridin-3-ylmethyl)-1H-1,2,3-triazole-4-carboxamide]
IC50 [1]: 0.5 to 5 µM

SMILES: O=C(CC1CCCC1)Nc1cn(CCCCn2cc(C(=O)NCC3CC3)nn2)nn1 [Example 304, 1-{4-[4-(2-cyclopentylacetamido)-1H-1,2,3-triazol-1-yl]butyl}-N-(cyclopropylmethyl)-1H-1,2,3-triazole-4-carboxamide]
IC50 [1]: 0.5 to 5 µM

Next, values leading:

EC50 (A549 cells): 0.5 to 5 µM
SMILES: CC(C)(O)CNC(=O)c1cn(CCCCc2ccc(NC(=O)Cc3cccc(OC(F)(F)F)c3)nn2)nn1 [Example 549, N-(2-hydroxy-2-methylpropyl)-1-[4-(6-{2-[3-(trifluoromethoxy)phenyl]acetamido}pyridazin-3-yl)butyl]-1H-1,2,3-triazole-4-carboxamide]

EC50 (A549 cells): < 0.1 µM
SMILES: CNC(=O)c1cn(CCCCc2ccc(NC(=O)Cc3cc(-c4cc(F)ccc4C)ccn3)nn2)nn1 [Example 609, 1-(4-(6-(2-(4-(5-fluoro-2-methylphenyl)pyridin-2-yl)acetamido)pyridazin-3-yl)butyl)-N-methyl-1H-1,2,3-triazole-4-carboxamide]

EC50 (A549 cells): 0.5 to 5 µM
SMILES: CC(C)NC(=O)c1cn(CCCCc2ccc(NC(=O)Cc3cccc(OC(F)(F)F)c3)nn2)nn1 [Example 526, N-(propan-2-yl)-1-[4-(6-{2-[3-(trifluoromethoxy)phenyl]acetamido}pyridazin-3-yl)butyl]-1H-1,2,3-triazole-4-carboxamide]

EC50 (A549 cells): < 0.1 µM
SMILES: O=C(Cc1ccccc1)Nc1ccc(CCCCn2cc(C(=O)NCc3ccccc3)nn2)nn1 [Example 5, N-Benzyl-1-(4-(6-(2-phenylacetamido)pyridazin-3-yl)butyl)-1H-1,2,3-triazole-4-carboxamide]

EC50 (A549 cells): < 0.1 µM
SMILES: CNC(=O)c1cn(C[C@@H](F)CCc2ccc(NC(=O)Cc3cc(C(F)(F)F)ccn3)nn2)nn1 [Example 260, (S)-1-(2-fluoro-4-(6-(2-(4-(trifluoromethyl)pyridin-2-yl)acetamido)pyridazin-3-yl)butyl)-N-methyl-1H-1,2,3-triazole-4-carboxamide]

EC50 (A549 cells): < 0.1 µM
SMILES: CNC(=O)c1cn(CC(F)CCc2ccc(NC(=O)Cc3cc(-c4cccc(OC(F)(F)F)c4)ccn3)nn2)nn1 (stereo not shown) [Example 242, 1-(2-fluoro-4-(6-(2-(4-(3-(trifluoromethoxy)phenyl)pyridin-2-yl)acetamido)pyridazin-3-yl)butyl)-N-methyl-1H-1,2,3-triazole-4-carboxamide]

EC50 (A549 cells): < 0.1 µM
SMILES: CNC(=O)c1cn(C[C@@H](F)CCc2ccc(NC(=O)Cc3cc(-c4cccc(OC(F)(F)F)c4)ccn3)nn2)nn1 [Example 257, (S)-1-(2-fluoro-4-(6-(2-(4-(3-(trifluoromethoxy)phenyl)pyridin-2-yl)acetamido)pyridazin-3-yl)butyl)-N-methyl-1H-1,2,3-triazole-4-carboxamide]

IC50 [1]: 0.1 to 0.5 µM
SMILES: O=C(NCc1ccccc1)c1cn(CCCCc2nnc(C(=O)NCc3ccccn3)s2)nn1 [Example 40, 5-{4-[4-(benzylcarbamoyl)-1H-1,2,3-triazol-1-yl]butyl}-N-(pyridin-2-ylmethyl)-1,3,4-thiadiazole-2-carboxamide]

IC50 [1]: 0.5 to 5 µM
SMILES: O=C(Cc1ccccn1)Nc1cn(CCCCn2cc(C(=O)NCC3CCCC3)nn2)nn1 [Example 291, N-(cyclopentylmethyl)-1-(4-{4-[2-(pyridin-2-yl)acetamido]-1H-1,2,3-triazol-1-yl}butyl)-1H-1,2,3-triazole-4-carboxamide]

IC50 [1]: 0.5 to 5 µM
SMILES: O=C(NCc1ccccn1)c1cn(CCCCc2nnc(C(=O)NCC3CC3)s2)nn1 [Example 68, N-(cyclopropylmethyl)-5-(4-{4-[(pyridin-2-ylmethyl)carbamoyl]-1H-1,2,3-triazol-1-yl}butyl)-1,3,4-thiadiazole-2-carboxamide]

IC50 [1]: 0.5 to 5 µM
SMILES: O=C(Cc1ccccn1)Nc1cn(CC(F)CCn2cc(C(=O)NCc3ccccn3)nn2)nn1 (stereo not shown) [Example 362, 1-(3-fluoro-4-{4-[2-(pyridin-2-yl)acetamido]-1H-1,2,3-triazol-1-yl}butyl)-N-(pyridin-2-ylmethyl)-1H-1,2,3-triazole-4-carboxamide]

IC50 [1]: 0.5 to 5 µM
SMILES: O=C(NCC1CC1)c1cn(CCCCc2nnc(C(=O)NCc3ccccn3)s2)nn1 [Example 69, 5-(4-{4-[(cyclopropylmethyl)carbamoyl]-1H-1,2,3-triazol-1-yl}butyl)-N-(pyridin-2-ylmethyl)-1,3,4-thiadiazole-2-carboxamide]

IC50 [1]: 0.5 to 5 µM
SMILES: O=C(CN1CCC(F)(F)C1)Nc1cn(CCCCn2cc(C(=O)NCc3ccccn3)nn2)nn1 [Example 325, 1-(4-{4-[2-(3,3-difluoropyrrolidin-1-yl)acetamido]-1H-1,2,3-triazol-1-yl}butyl)-N-(pyridin-2-ylmethyl)-1H-1,2,3-triazole-4-carboxamide]
